“And” between values parts separate entries of the source, which are not always exact repeats. Identical values can stand only once. Like-named read-outs stand apart in the source and are kept apart here.
Key:
caspases 3/7 = assay: Caspase activity, luminescent kit, caspases 3/7; assay type: cell-based, human; conditions: for kaspáza (3) a 7, raw signal / kaspáza (3) a 7, signal / viabilita: individual experiments by date; for kaspáza (3) a 7, raw signal, průměry / kaspáza (3) a 7, % kontroly / kaspáza (3) a 7, signal / viabilita, průměry: mean; for kaspáza (3) a 7, % kontroly / kaspáza (3) a 7, signal / viabilita / kaspáza (3) a 7, signal / viabilita, průměry: normalised to viability
Description: To assess the effect of the compounds on caspase activity, MCF-7 cells were incubated with 100 nM Bp4eT or its metabolites for 3, 24 or 72 h/37°C in 96-well plates, as described above. The cells were then lysed by adding 100 μL of cold lysis buffer (100 mM HEPES, 10 mM CHAPS, 10 mM D-L-dithiothreitol, pH 7.4) to 100 μL of medium in each well. Lysates were immediately frozen at -80°C. Thawed lysates were used to assess caspase activity using luminescent kits for caspases 3/7, 8 and 9 (Promega, Madison, WI, USA). The luminescence was measured using the Tecan Infinite 200M plate reader. Caspase activity in the experimental groups was corrected according to the cellular viability of each group and expressed as a percentage of activity of the untreated control (100%).

MCF-7 cells = assay: Cellular 59Fe uptake from 59Fe2-transferrin; assay type: cell-based, human; design: key to Uptake 59Fe, Ave / Uptake 59Fe: % of internalized 59Fe in untreated control cells
Text: Human transferrin (Sigma) was labeled with ^56Fe or ^59Fe (PerkinElmer, Massachusetts, USA) to produce ^56Fe2-transferrin or ^59Fe2-transferrin (^59Fe2-Tf), respectively, with a final specific activity of 500 pCi/pmol Fe, as previously described. Unbound ^59Fe was removed by exhaustive vacuum dialysis against a large excess of 0.15 M NaCl buffered to pH 7.4 with 1.4% NaHCO3 by standard methods.
The ability of the chelators to prevent cellular ^59Fe uptake from ^59Fe2-transferrin was examined using standard techniques. In brief, confluent MCF-7 cells in 6-well plates were incubated with 0.75 μM ^59Fe2-Tf for 3 h/37°C in the presence of Bp4eT or its metabolites (25 μM). The cells were then washed four times with ice-cold PBS and the level of internalized ^59Fe was determined by incubating the cell monolayer for 30 min/4°C with the general protease, Pronase (1 mg/mL; Sigma-Aldrich). The cells were then removed from the monolayer with a plastic spatula on ice and centrifuged for 1 min/12,000 x g/4°C. The supernatant represents membrane-bound, Pronase-sensitive ^59Fe that was released by the protease, while the Pronase-insensitive fraction represents internalized ^59Fe. The amount of internalized ^59Fe was expressed as a percentage of ^59Fe internalized by control (untreated) cells.

[1] = test system: 3T3 mouse embryo fibroblasts; assay: MTT cytotoxicity assay, 3T3 cells; assay type: cell-based; conditions: for IC50: MTT
Description: (§1) For cytotoxicity experiments, cancer cells were seeded at a density of 5,000 (MCF-7), 10,000 (HL-60) or 2,000 cells/well (HCT116 and A549) in 96-well plates (TPP) for 24 h/37°C prior to the addition of examined agents. The non-cancerous cells, 3T3 and H9c2 cells, were cultured for 24 h/37°C in 96-well plates at a density of 10,000 cells/well, the medium was then changed to serum- and pyruvate-free DMEM (Sigma-Aldrich) and incubated with the cells for another 24 h/37°C. The cytotoxic effects of Bp4eT and its metabolites were studied at different concentrations after a 72 h/37°C incubation. In order to aid the dissolution of the lipophilic ligands, 0.1% dimethyl sulfoxide (v/v) (DMSO; Sigma-Aldrich) was present in the culture medium of all groups. At this concentration, DMSO had no effect on cellular proliferation or viability.
(§2) The viability of cells were determined using an MTT assay (Sigma-Aldrich) according to previously established methods. The optical density of soluble MTT was measured at λ = 570 nm, subtracting the λ = 690 nm background using a Tecan Infinite 200M plate reader (Tecan Group, Männedorf, Switzerland). The viability or proliferation of experimental groups was expressed as a percentage of the untreated controls (100%).
(§3) SigmaStat for Windows 3.5 (Systat Software, San Jose, CA, USA) statistical software package was utilized to analyze results. The data are expressed as the mean ± SD of a given number of experiments. Statistical significance was determined using a one-way ANOVA with a Bonferroni post-hoc test or Student’s t-test. The results were considered to be statistically significant when p < 0.05. The IC50 values were calculated using CalcuSyn 2.0 software (Biosoft, Cambridge, UK). Cell cycle analysis was evaluated using MultiCycle AV Software (Phoenix Flow Systems, San Diego, CA, USA).

[2] = MTT cytotoxicity assay, 3T3 cells; assay type: cell-based, mouse; conditions: mouse, 3T3 mouse embryo fibroblasts, 3T3, 10 000 b/j; for viability at 72 h, 1 μM: koncentrace 1 μM; for viability at 72 h, 3 μM: koncentrace 3 μM; for viability at 72 h, 10 μM: koncentrace 10 μM; for viability at 72 h, 30 μM: koncentrace 30 μM; for viability at 72 h, 100 μM: koncentrace 100 μM; for viability at 72 h, 300 μM: koncentrace 300 μM; for viability at 72 h, 1000 μM: koncentrace 1000 μM
Description: as §1, §2, §3

H9c2 cardiomyoblasts = assay: MTT cytotoxicity assay, H9c2 cells; assay type: cell-based, rat; conditions: for IC50: MTT
Description: as §1, §2, §3

[3] = individual experiments, read-out: MTT viability (0 = 100)
[4] = mean, read-out: MTT viability (0 = 100), průměr

CCN=CNN=C(c1ccccc1)c1ccccn1 [Bp4eA, N ^3-ethyl-N ^1-[phenyl(pyridin-2-yl)methylene]formamidrazone]
kaspáza (3) a 7, raw signal (caspases 3/7; 3 hodiny): 1911.5 and 1519 and 1669 and 1490
kaspáza (3) a 7, raw signal, průměry (caspases 3/7; 3 hodiny): 1647.38
kaspáza (3) a 7, % kontroly (caspases 3/7; 3 hodiny): 103.19 % kontroly
kaspáza (3) a 7, signal / viabilita (caspases 3/7; 3 hodiny): 19.7461 and 15.6915 and 17.241 and 15.3919
kaspáza (3) a 7, signal / viabilita, průměry (caspases 3/7; 3 hodiny): 17.0176
kaspáza (3) a 7, raw signal (caspases 3/7; 24 hodin): 2415 and 2091.5 and 2337 and 2002.5
kaspáza (3) a 7, raw signal, průměry (caspases 3/7; 24 hodin): 2211.5
kaspáza (3) a 7, % kontroly (caspases 3/7; 24 hodin): 101.36 % kontroly
kaspáza (3) a 7, signal / viabilita (caspases 3/7; 24 hodin): 25.2632 and 21.8791 and 24.4473 and 20.9481
kaspáza (3) a 7, signal / viabilita, průměry (caspases 3/7; 24 hodin): 23.1344
kaspáza (3) a 7, raw signal (caspases 3/7; 72 hodin): 7143 and 7295 and 7483 and 8002
kaspáza (3) a 7, raw signal, průměry (caspases 3/7; 72 hodin): 7480.75
kaspáza (3) a 7, % kontroly (caspases 3/7; 72 hodin): 108.88 % kontroly
kaspáza (3) a 7, signal / viabilita (caspases 3/7; 72 hodin): 76.7734 and 78.4071 and 80.4278 and 86.006
kaspáza (3) a 7, signal / viabilita, průměry (caspases 3/7; 72 hodin): 80.4036
Internalized 59Fe uptake, % of the control (MCF-7 cells; 25 μM, 3 h/37°C, MCF-7, 0.75 μM 59Fe2-Tf): comparable to the untreated control
Uptake 59Fe, Ave (MCF-7 cells; average of all replicates, Control Ave = 100): 93.4629
Uptake 59Fe (MCF-7 cells; single replicate (three per date), Control Ave = 100): 92.0297 and 96.1364 and 98.7564 and 74.0112 and 96.1871 and 80.6939 and 103.039 and 106.85
IC50 ([1]; 3T3, 10 000 b/j, individual experiments, read-out: IC50): 1010 µM and 1150 µM
MTT viability (0 = 100) ([1]; 3T3, 10 000 b/j, koncentrace 1 μM, individual experiments): 95.1233 and 93.3461 and 101.857
MTT viability (0 = 100) ([1]; 3T3, 10 000 b/j, koncentrace 3 μM, individual experiments): 92.5164 and 97.328 and 96.9903
MTT viability (0 = 100) ([1]; 3T3, 10 000 b/j, koncentrace 10 μM, individual experiments): 86.2678 and 91.552 and 97.4344
MTT viability (0 = 100) ([1]; 3T3, 10 000 b/j, koncentrace 30 μM, individual experiments): 90.9815 and 83.2122 and 96.551
MTT viability (0 = 100) ([1]; 3T3, 10 000 b/j, koncentrace 100 μM, individual experiments): 87.8661 and 89.8957 and 82.8198
MTT viability (0 = 100) ([1]; 3T3, 10 000 b/j, koncentrace 300 μM, individual experiments): 76.7642 and 78.9793 and 76.2498
MTT viability (0 = 100) ([1]; 3T3, 10 000 b/j, koncentrace 1000 μM, individual experiments): 48.7008 and 53.1589 and 49.6824
IC50 ([1]; Mus musculus, Fibroblast, 3T3, 10 000 b/j, individual experiments, read-out: IC50): 748 µM
IC50 ([1]; Mus musculus, Fibroblast, 3T3, 10 000 b/j, mean, read-out: IC50, průměr): 1030 µM
IC50 ([1]; Mus musculus, Fibroblast, 72 h, 3T3, 72 h/37°C, mean ± SD, n ≥ 4, read-out: IC50): 1030 ± 204 µM
viability at 72 h, 1 μM [2, 3]: 110%
viability at 72 h, 1 μM [2, 4]: 100%
viability at 72 h, 3 μM [2, 3]: 106%
viability at 72 h, 3 μM [2, 4]: 98.2%
viability at 72 h, 10 μM [2, 3]: 103%
viability at 72 h, 10 μM [2, 4]: 94.7%
viability at 72 h, 30 μM [2, 3]: 101%
viability at 72 h, 30 μM [2, 4]: 92.8%
viability at 72 h, 100 μM [2, 3]: 88.8%
viability at 72 h, 100 μM [2, 4]: 87.3%
viability at 72 h, 300 μM [2, 3]: 80.5%
viability at 72 h, 300 μM [2, 4]: 78.1%
viability at 72 h, 1000 μM [2, 3]: 37.5%
viability at 72 h, 1000 μM [2, 4]: 47.2%
MTT, relative to control (0 = 100) (H9c2 cardiomyoblasts; H9c2, 10 000 b/j, 1 μM, průměr (mean), sheet Bp4eA): 96.26
MTT, relative to control (0 = 100) (H9c2 cardiomyoblasts; H9c2, 10 000 b/j, 1 μM, single experiment (date), sheet Bp4eA): 96.9641 and 92.8493 and 97.4859 and 95.7195 and 98.2981
MTT, relative to control (0 = 100) (H9c2 cardiomyoblasts; H9c2, 10 000 b/j, 3 μM, průměr (mean), sheet Bp4eA): 96.27
MTT, relative to control (0 = 100) (H9c2 cardiomyoblasts; H9c2, 10 000 b/j, 3 μM, single experiment (date), sheet Bp4eA): 100.784 and 93.7843 and 97.6949 and 91.6948 and 97.3803
MTT, relative to control (0 = 100) (H9c2 cardiomyoblasts; H9c2, 10 000 b/j, 10 μM, průměr (mean), sheet Bp4eA): 95.56
MTT, relative to control (0 = 100) (H9c2 cardiomyoblasts; H9c2, 10 000 b/j, 10 μM, single experiment (date), sheet Bp4eA): 96.5102 and 92.1411 and 95.5166 and 98.0809
MTT, relative to control (0 = 100) (H9c2 cardiomyoblasts; H9c2, 10 000 b/j, 30 μM, průměr (mean), sheet Bp4eA): 93.18
MTT, relative to control (0 = 100) (H9c2 cardiomyoblasts; H9c2, 10 000 b/j, 30 μM, single experiment (date), sheet Bp4eA): 94.6024 and 93.1446 and 95.1622 and 88.8218 and 94.1801
MTT, relative to control (0 = 100) (H9c2 cardiomyoblasts; H9c2, 10 000 b/j, 100 μM, průměr (mean), sheet Bp4eA): 76.55
MTT, relative to control (0 = 100) (H9c2 cardiomyoblasts; H9c2, 10 000 b/j, 100 μM, single experiment (date), sheet Bp4eA): 76.7908 and 72.9908 and 82.9441 and 73.781 and 76.2525
MTT, relative to control (0 = 100) (H9c2 cardiomyoblasts; H9c2, 10 000 b/j, 300 μM, průměr (mean), sheet Bp4eA): 66.55
MTT, relative to control (0 = 100) (H9c2 cardiomyoblasts; H9c2, 10 000 b/j, 300 μM, single experiment (date), sheet Bp4eA): 71.4763 and 63.147 and 62.7404 and 68.8465
MTT, relative to control (0 = 100) (H9c2 cardiomyoblasts; H9c2, 10 000 b/j, 1000 μM, průměr (mean), sheet Bp4eA): 23.16
MTT, relative to control (0 = 100) (H9c2 cardiomyoblasts; H9c2, 10 000 b/j, 1000 μM, single experiment (date), sheet Bp4eA): 17.0741 and 23.4615 and 18.1134 and 33.9931
IC50 (H9c2 cardiomyoblasts; H9c2, 10 000 b/j, single experiment (date), sheet Bp4eA, read-out: IC50 měřené): 510 µM and 315 µM and 533 µM
IC50 (H9c2 cardiomyoblasts; Rattus norvegicus, H9c2, 72 h, H9c2, 72 h/37°C, mean ± SD, n ≥ 4, read-out: IC50): 416 ± 122 µM
IC50 (H9c2 cardiomyoblasts; Rattus norvegicus, H9c2, H9c2, 10 000 b/j, průměr (mean), sheet Bp4eA, read-out: IC50 měřené): 416 µM
IC50 (H9c2 cardiomyoblasts; Rattus norvegicus, H9c2, H9c2, 10 000 b/j, single experiment (date), sheet Bp4eA, read-out: IC50 měřené): 306 µM
